From patent publication US9938279B2, “Method for treating disease or condition susceptible to amelioration by AMPK activators and compounds of formula which are useful to activate AMP-activated protein kinase (AMPK)” (ENERGENESIS BIOMEDICAL CO., LTD, priority 2013, dated 2018)

Tests used:
[1] = system: AMPK; assay: AMPK activation assay (western blot phospho-AMPK Thr172) in 3T3-L1; type: cell-based, mouse; details: 3T3-L1 cells, 30 min treatment
Procedure: (§1) Effects of compounds on AMPK activation were analyzed in mouse muscle cell C2C12, mouse fibroblast 3T3-L1 and human hepatocyte Hep G2. Those cell lines were cultured in high-glucose Dulbecco's modified Eagle's medium (DMEM) containing 10% fetal bovine serum (FBS), 4 mM L-glutamine, 2 mM sodium pyruvate and 1% penicillin/streptomycin (Invitrogen GibcoBRL, Carlsbad, Calif., USA) at 37° C. under 5% CO2. Cells were plated at 3×10^5 per well (6-well plate). 24 h after plating, cells were treated with indicated compounds for 30 min followed by cell lysis and western blot analysis. Equal amount of protein were separated by SDS-PAGE and then electroblotted on to PVDF membranes. Membranes were blocked with 3% BSA in PBS for 60 min and incubated with anti-phospho-AMPK (Thr172) antibody (1:2,000, Cell signaling), anti-AMPK antibody (1:2,000, Cell signaling), anti-Glut4 antibody (1:1,000, Millipore) or anti-actin antibody (1:5,000; Chemicon International) at 4° C. overnight followed by the corresponding secondary antibody for 1 h at room temperature (RT). Immunoreactive bands were detected by enhanced chemiluminescence (ECL; Pierce, Rockford, Ill., USA) and recorded using Kodakfilm (Rochester, N.Y., USA). The detected signals were scanned and then quantified by using TotalLab Quant software (TotalLab).

[2] = system: AMPK; assay: AMPK activation assay (western blot phospho-AMPK Thr172) in Hep G2; type: cell-based, human; details: Hep G2 cells, 30 min treatment
Procedure: as §1

[3] = system: AMPK; assay: AMPK activation assay (western blot phospho-AMPK Thr172) in C2C12; type: cell-based, mouse; details: C2C12 cells, 30 min treatment
Procedure: as §1

Row | SMILES | AMPK activation (% to control) 3T3-L1 ([1]; 1 microM) | AMPK activation (% to control) 3T3-L1 ([1]; 10 microM) | AMPK activation (% to control) 3T3-L1 ([1]; 100 microM) | AMPK activation (% to control) 3T3-L1 ([1]; 200 microM) | AMPK activation (% to control) Hep G2 ([2]; 1 microM) | AMPK activation (% to control) Hep G2 ([2]; 10 microM) | AMPK activation (% to control) Hep G2 ([2]; 100 microM) | AMPK activation (% to control) Hep G2 ([2]; 200 microM) | AMPK activation (% to control) C2C12 ([3]; 1 microM) | AMPK activation (% to control) C2C12 ([3]; 10 microM) | AMPK activation (% to control) C2C12 ([3]; 100 microM) | AMPK activation (% to control) C2C12 ([3]; 200 microM)
1 | Oc1nc(S)nc2nc[nH]c12 [Example 2-mercapto-6-hydroxypurine, 2-mercapto-6-hydroxypurine] | 115 % to control | 147 % to control | 220 % to control | 308 % to control | 113 % to control | 132 % to control | 209 % to control | 315 % to control | 109 % to control | 148 % to control | 251 % to control | 333 % to control
2 | Nc1nc(S)nc2nc[nH]c12 [Example 2-mercaptoadenine, 2-mercaptoadenine] | 112 % to control | 128 % to control | 204 % to control | 297 % to control | 118 % to control | 119 % to control | 195 % to control | 308 % to control | 105 % to control | 115 % to control | 221 % to control | 289 % to control
3 | Cc1nc(O)c2[nH]cnc2n1 [Example 2-methyl-6-hydroxypurine, 2-methyl-6-hydroxypurine] | 112 % to control | 144 % to control | 228 % to control | 338 % to control | 116 % to control | 162 % to control | 219 % to control | 347 % to control | 109 % to control | 139 % to control | 241 % to control | 305 % to control
4 | O=c1[nH]cc(F)c(=O)[nH]1 [Example 5-fluorouracil, 5-fluorouracil] | 108 % to control | 113 % to control | 248 % to control | 322 % to control | 110 % to control | 134 % to control | 237 % to control | 319 % to control | 105 % to control | 105 % to control | 224 % to control | 318 % to control
5 | Cc1c[nH]c(=O)nc1N [Example 5-methylcytosine, 5-methylcytosine] | 115 % to control | 161 % to control | 253 % to control | 356 % to control | 107 % to control | 114 % to control | 218 % to control | 317 % to control | 116 % to control | 157 % to control | 241 % to control | 338 % to control
6 | O=c1cn[nH]c(=O)[nH]1 [Example 6-azauracil, 6-azauracil] | 109 % to control | 115 % to control | 185 % to control | 288 % to control | 108 % to control | 124 % to control | 199 % to control | 273 % to control | 109 % to control | 109 % to control | 197 % to control | 284 % to control
7 | c1nc(NC2CCCCC2)c2[nH]cnc2n1 [Example 6-cyclohexylaminopurine, 6-cyclohexylaminopurine] | 107 % to control | 152 % to control | 269 % to control | 333 % to control | 111 % to control | 132 % to control | 261 % to control | 354 % to control | 107 % to control | 110 % to control | 248 % to control | 322 % to control
8 | CCCCCCNc1ncnc2nc[nH]c12 [Example 6-hexylaminopurine, 6-hexylaminopurine] | 108 % to control | 111 % to control | 170 % to control | 265 % to control | 112 % to control | 148 % to control | 280 % to control | 317 % to control | 109 % to control | 123 % to control | 248 % to control | 359 % to control
9 | Sc1ncnc2nc[nH]c12 [Example 6-mercaptopurine, 6-mercaptopurine] | 114 % to control | 128 % to control | 176 % to control | 218 % to control | 114 % to control | 122 % to control | 204 % to control | 279 % to control | 105 % to control | 119 % to control | 198 % to control | 289 % to control
10 | CNc1ncnc2nc[nH]c12 [Example 6-methylaminopurine, 6-methylaminopurine] | 107 % to control | 129 % to control | 241 % to control | 347 % to control | 116 % to control | 141 % to control | 259 % to control | 363 % to control | 103 % to control | 108 % to control | 213 % to control | 328 % to control
11 | Nc1nc2[nH]cnc2c(=S)[nH]1 [Example 6-thioquanine] | 115 % to control | 132 % to control | 241 % to control | 289 % to control | 116 % to control | 133 % to control | 229 % to control | 311 % to control | 116 % to control | 141 % to control | 215 % to control | 301 % to control
12 | O=c1[nH]c(=O)n([C@H]2C[C@H](O)[C@@H](CO)O2)cc1F [Floxuridine] | 116 % to control | 141 % to control | 222 % to control | 343 % to control | 117 % to control | 147 % to control | 206 % to control | 308 % to control | 117 % to control | 144 % to control | 231 % to control | 312 % to control
